Source: PubChem BioAssay (NCI)
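Cultured in 96-well plates, cells were exposed to test compound for 48 hours across five concentrations. GI50 is the concentration that inhibits growth by half. TGI: concentration producing complete growth inhibition.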

What was measured:
Assay in all cases: NCI tumour cell line growth inhibition, 48 h
786-0 renal = system: 786-0 renal
A498 renal = system: A498 renal
A549 NSCLC = system: A549 NSCLC
ACHN renal = system: ACHN renal
BT-549 breast = system: BT-549 breast
CAKI-1 renal = system: CAKI-1 renal
CCRF-CEM leukemia = system: CCRF-CEM leukemia
COLO 205 colon = system: COLO 205 colon
DU-145 prostate = system: DU-145 prostate
EKVX NSCLC = system: EKVX NSCLC
HCC-2998 colon = system: HCC-2998 colon
HCT-116 colon = system: HCT-116 colon
HCT-15 colon = system: HCT-15 colon
HL-60(TB) leukemia = system: HL-60(TB) leukemia
HOP-62 NSCLC = system: HOP-62 NSCLC
HOP-92 NSCLC = system: HOP-92 NSCLC
HS 578T breast = system: HS 578T breast
HT29 colon = system: HT29 colon
IGROV1 ovarian = system: IGROV1 ovarian
K-562 leukemia = system: K-562 leukemia
KM12 colon = system: KM12 colon
M14 melanoma = system: M14 melanoma
MALME-3M melanoma = system: MALME-3M melanoma
MCF7 breast = system: MCF7 breast
MDA-MB-231 breast = system: MDA-MB-231 breast
MDA-MB-435 = system: MDA-MB-435
MDA-MB-468 breast = system: MDA-MB-468 breast
MOLT-4 leukemia = system: MOLT-4 leukemia
NCI-H226 lung = system: NCI-H226 lung
NCI-H23 lung = system: NCI-H23 lung
NCI-H460 lung = system: NCI-H460 lung
NCI-H522 lung = system: NCI-H522 lung
NCI/ADR-RES ovarian = system: NCI/ADR-RES ovarian
OVCAR-3 ovarian = system: OVCAR-3 ovarian
OVCAR-4 ovarian = system: OVCAR-4 ovarian
OVCAR-5 ovarian = system: OVCAR-5 ovarian
OVCAR-8 ovarian = system: OVCAR-8 ovarian
PC-3 prostate = system: PC-3 prostate
RPMI-8226 leukemia = system: RPMI-8226 leukemia
RXF 393 renal = system: RXF 393 renal
SF-268 CNS = system: SF-268 CNS
SF-295 CNS = system: SF-295 CNS
SF-539 CNS = system: SF-539 CNS
SK-MEL-2 melanoma = system: SK-MEL-2 melanoma
SK-MEL-28 melanoma = system: SK-MEL-28 melanoma
SK-MEL-5 melanoma = system: SK-MEL-5 melanoma
SK-OV-3 ovarian = system: SK-OV-3 ovarian
SN12C renal = system: SN12C renal
SNB-19 CNS = system: SNB-19 CNS
SNB-75 CNS = system: SNB-75 CNS
SR leukemia = system: SR leukemia
SW-620 colon = system: SW-620 colon
T-47D breast = system: T-47D breast
TK-10 renal = system: TK-10 renal
U251 CNS = system: U251 CNS
UACC-257 melanoma = system: UACC-257 melanoma
UACC-62 melanoma = system: UACC-62 melanoma
UO-31 renal = system: UO-31 renal

## Cn1cc(-c2cc(N)n3nc(-c4cn(C)c5ccccc45)cc3n2)c2cc(Cl)ccc21
786-0 renal
  GI50: 1.74 µM
  TGI: 3.45 µM
A498 renal
  GI50: 14.3 µM
  TGI: 32.3 µM
A549 NSCLC
  GI50: 2.68 µM
  TGI: 10.7 µM
ACHN renal
  GI50: 2.05 µM
  TGI: 4.46 µM
BT-549 breast
  GI50: 14.6 µM
  TGI: 33.4 µM
CAKI-1 renal
  GI50: 2 µM
  TGI: 5.54 µM
CCRF-CEM leukemia
  GI50: 3.22 µM
  TGI: 15.3 µM
COLO 205 colon
  GI50: 1.97 µM
  TGI: 3.95 µM
DU-145 prostate
  GI50: 6.37 µM
  TGI: > 100 µM
EKVX NSCLC
  GI50: 12.6 µM
  TGI: 37.4 µM
HCC-2998 colon
  GI50: 1.78 µM
  TGI: 3.34 µM
HCT-116 colon
  GI50: 1.87 µM
  TGI: 3.87 µM
HCT-15 colon
  GI50: 1.84 µM
  TGI: 3.95 µM
HL-60(TB) leukemia
  GI50: 2.35 µM
  TGI: 5.81 µM
HOP-62 NSCLC
  GI50: 5.29 µM
  TGI: 26.4 µM
HOP-92 NSCLC
  GI50: 2.23 µM
  TGI: 6.51 µM
HS 578T breast
  GI50: 3.3 µM
  TGI: 19.4 µM
HT29 colon
  GI50: 1.79 µM
  TGI: 3.51 µM
IGROV1 ovarian
  GI50: 2.45 µM
  TGI: 8.26 µM
K-562 leukemia
  GI50: 2.97 µM
  TGI: 10.6 µM
KM12 colon
  GI50: 2.15 µM
  TGI: 4.83 µM
M14 melanoma
  GI50: 1.95 µM
  TGI: 4.71 µM
MALME-3M melanoma
  GI50: 1.71 µM
  TGI: 3.22 µM
MCF7 breast
  GI50: 1.77 µM
  TGI: 4.13 µM
MDA-MB-231 breast
  GI50: 1.82 µM
  TGI: 3.3 µM
MDA-MB-435
  GI50: 2.06 µM
  TGI: 4.26 µM
MDA-MB-468 breast
  GI50: 2.2 µM
  TGI: 5.36 µM
MOLT-4 leukemia
  GI50: 2.58 µM
  TGI: 9.61 µM
NCI-H226 lung
  GI50: > 100 µM
  TGI: > 100 µM
NCI-H23 lung
  GI50: 3.75 µM
  TGI: 20.5 µM
NCI-H460 lung
  GI50: 2.2 µM
  TGI: 4.96 µM
NCI-H522 lung
  GI50: 1.6 µM
  TGI: 3.48 µM
NCI/ADR-RES ovarian
  GI50: 3.03 µM
  TGI: 9.38 µM
OVCAR-3 ovarian
  GI50: 11.3 µM
  TGI: 28.1 µM
OVCAR-4 ovarian
  GI50: 3.28 µM
  TGI: 11.3 µM
OVCAR-5 ovarian
  GI50: 5.16 µM
  TGI: 25.5 µM
OVCAR-8 ovarian
  GI50: 2.09 µM
  TGI: 4.59 µM
PC-3 prostate
  GI50: 1.93 µM
  TGI: 4.91 µM
RPMI-8226 leukemia
  GI50: 3.27 µM
  TGI: 14.9 µM
RXF 393 renal
  GI50: 1.98 µM
  TGI: 4.01 µM
SF-268 CNS
  GI50: 8.07 µM
  TGI: 32.7 µM
SF-295 CNS
  GI50: 1.92 µM
  TGI: 4.26 µM
SF-539 CNS
  GI50: 1.85 µM
  TGI: 3.83 µM
SK-MEL-2 melanoma
  GI50: 1.84 µM
  TGI: 4.1 µM
SK-MEL-28 melanoma
  GI50: 1.69 µM
  TGI: 3.08 µM
SK-MEL-5 melanoma
  GI50: 3.5 µM
  TGI: 13 µM
SK-OV-3 ovarian
  GI50: 18 µM
  TGI: 48.2 µM
SN12C renal
  GI50: 1.77 µM
  TGI: 3.33 µM
SNB-19 CNS
  GI50: 3.45 µM
  TGI: 23.8 µM
SNB-75 CNS
  GI50: 10.6 µM
  TGI: 26.6 µM
SR leukemia
  GI50: 2.03 µM
  TGI: 6.77 µM
SW-620 colon
  GI50: 2.17 µM
  TGI: 4.8 µM
T-47D breast
  GI50: 10.1 µM
  TGI: 33.3 µM
TK-10 renal
  GI50: 11.7 µM
  TGI: 26.6 µM
U251 CNS
  GI50: 1.86 µM
  TGI: 3.73 µM
UACC-257 melanoma
  GI50: 2.44 µM
  TGI: 7.17 µM
UACC-62 melanoma
  GI50: 1.64 µM
  TGI: 3.16 µM
UO-31 renal
  GI50: 1.63 µM
  TGI: 3.07 µM
